These results are taken from PMC3546728, “Bacterial Over-Expression and Purification of the 3′phosphoadenosine 5′phosphosulfate (PAPS) Reductase Domain of Human FAD Synthase: Functional Characterization and Homology Modeling” (International Journal of Molecular Sciences, 2012).

For assay [1], the target named is T1, 6-His-Δ1-328-hFADS (Homo sapiens, UniProt Q8NFF5).
T1 construct: gene FLAD1; C-terminal PAPS reductase domain, residues 329-587; vector pH6EX3; E. coli Rosetta (DE3); theoretical 31499 Da, ~28 kDa on SDS-PAGE
T1 sequence (Q8NFF5 329-587, stated change not applied): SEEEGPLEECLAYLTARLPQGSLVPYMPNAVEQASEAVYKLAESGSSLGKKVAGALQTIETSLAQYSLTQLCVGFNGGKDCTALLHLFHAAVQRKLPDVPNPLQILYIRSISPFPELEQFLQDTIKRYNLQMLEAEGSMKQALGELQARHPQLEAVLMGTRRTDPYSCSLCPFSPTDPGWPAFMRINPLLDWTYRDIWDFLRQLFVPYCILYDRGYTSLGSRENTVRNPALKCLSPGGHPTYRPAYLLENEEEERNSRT
In words: fluorimetric FAD synthesis rate. Conditions: competitive; data not shown. It is filed as biochemical.

Assay [2] deals with T1, 6-His-Δ1-328-hFADS. In words: absorbance spectrum of purified holoprotein; HPLC of flavin released by acid. The note with it: co-purified, tightly bound FAD, 40 mM Hepes/Na, 5 mM β-mercaptoethanol, pH 7.4. It is filed as binding.

For the compound `Nc1nc2c(ncn2[C@@H]2O[C@H](COP(=O)(O)OP(=O)(O)O)[C@@H](O)[C@H]2O)c(=O)[nH]1` [GDP], the “fluorimetric FAD synthesis rate” value at 6-His-Δ1-328-hFADS [1] is listed as “no significant changes were found in competitive inhibition by GDP (data not shown)”.
`Cc1cc2nc3c(=O)[nH]c(=O)nc-3n(C[C@H](O)[C@H](O)[C@H](O)COP(=O)(O)OP(=O)(O)OC[C@H]3O[C@@H](n4cnc5c(N)ncnc54)[C@H](O)[C@@H]3O)c2cc1C` [FAD]: the FAD/protein monomer ratio result at 6-His-Δ1-328-hFADS [2] is “demonstrates that the bound cofactor is FAD with a FAD/protein monomer ratio”.
